pEC50: −log10 of the molar value.
Molecular target: Arabidopsis thaliana SHMT
Test: SHMT activity assay (ED50 SHMT), coupled with N5,N10-CH2-THF dehydrogenase, NADH at 340 nm
Type: biochemical
Outline: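 His-tagged SHMT purified on Ni-NTA. NADH formation followed at 340 nm for 30 min; ED50 from inhibition of initial velocity.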

[1] = Table 2, values given as upper bounds
[2] = Table 2, Arabidopsis thaliana SHMT enzyme assay, values given as upper bounds
[3] = Arabidopsis thaliana SHMT enzyme assay, values given as upper bounds
[4] = inhibition of initial velocity of Arabidopsis thaliana SHMT

Compound: Cc1n[nH]c2c1C(c1cc(Cl)c(OCC(=O)O)c(Cl)c1)(C1CCC1)C(C#N)=C(N)O2 (stereo not shown) [Compound 2.504]
- pEC50 [1]: > 6.00

Compound: N#CC1=C(N)Oc2[nH]ncc2C1(c1cccc(C(F)(F)F)c1)C1CCC1 (stereo not shown) [Compound 2.195.]
- pEC50 [1]: > 6.00

Compound: Cc1n[nH]c2c1C(c1cc(C#N)cc(-c3cccnc3)c1)(C1CCC1)C(C#N)=C(N)O2 (stereo not shown) [Compound 2.350]
- pEC50 [2]: > 8.00

Compound: COc1c(F)cc(-c2cc(C#N)cc(C3(C4CCC4)C(C#N)=C(N)Oc4[nH]nc(C)c43)c2)cc1F (stereo not shown) [Compound 2.463]
- pEC50 [1]: > 8.00

Compound: N#CC1=C(N)Oc2[nH]nc(C3CC3)c2C1(c1cccc(C(F)(F)F)c1)C1CCC1 (stereo not shown) [Compound 2.171.]
- pEC50 [1]: > 7.00

Compound: Cc1n[nH]c2c1C(c1cc(Br)cc(Br)c1)(C(C)F)C(C#N)=C(N)O2 (stereo not shown) [Compound 2.685]
- pEC50 [3]: > 8.00

Compound: Cc1n[nH]c2c1C(c1ccc(-c3cccs3)s1)(C1CCC1)C(C#N)=C(N)O2 (stereo not shown) [Compound 4.1]
- pEC50 [4]: > 8.00

Compound: Cc1n[nH]c2c1C(c1cc(C#N)cc(N(C)CCCC(=O)O)c1)(C1CCC1)C(C#N)=C(N)O2 (stereo not shown) [Compound 2.695]
- pEC50 [3]: > 7.00

Compound: COC(=O)c1cccc(-c2cc(C#N)cc(C3(C4CCC4)C(C#N)=C(N)Oc4[nH]nc(C)c43)c2)c1 (stereo not shown) [Compound 2.453]
- pEC50 [1]: > 8.00

Compound: COc1c(Br)cc(C2(C3CCC3)C(C#N)=C(N)Oc3[nH]nc(C)c32)cc1Br (stereo not shown) [Compound 2.241]
- pEC50 [2]: > 8.00

Compound: Cc1n[nH]c2c1C(c1cc(Cl)c(Cl)c(C(F)(F)F)c1)(C1CCC1)C(C#N)=C(N)O2 (stereo not shown) [Compound 2.273]
- pEC50 [2]: > 8.00

Compound: Cc1n[nH]c2c1C(c1cccc(C(F)(F)F)c1)(C(C)C)C(C#N)=C(N)O2 (stereo not shown) [Compound 2.137.]
- pEC50 [1]: > 7.00

Compound: CCC1(CCC2CCCCC2)C(C#N)=C(N)Oc2[nH]nc(C)c21 (racemic) [Compound 4.65]
- pEC50 [4]: > 6.00

Compound: Cc1n[nH]c2c1C(c1cc(O)cc(Cl)c1)(C1CCC1)C(C#N)=C(N)O2 (stereo not shown) [Compound 2.508]
- pEC50 [1]: > 5.00

Compound: COc1c(Cl)cc(C2(C(C)C)C(C#N)=C(N)Oc3[nH]nc(C)c32)cc1Cl (stereo not shown) [Compound 2.331]
- pEC50 [2]: > 8.00

Compound: CCCC1(c2ccc(Cl)c(Cl)c2)C(C#N)=C(N)Oc2[nH]nc(C)c21 (stereo not shown) [Compound 2.90.]
- pEC50 [1]: > 6.00

Compound: CCC1(c2cc(Br)cc(C#N)c2)C(C#N)=C(N)Oc2[nH]nc(C(C)C)c21 (stereo not shown) [Compound 2.583]
- pEC50 [1]: > 8.00

Compound: Cc1n[nH]c2c1C(c1cc(Br)cc(C#N)c1)(C(C)C)C(C#N)=C(N)O2 (stereo not shown) [Compound 2.334]
- pEC50 [2]: > 8.00

Compound: N#CC1=C(N)Oc2[nH]nc(C3CC3)c2C1(c1cc(Cl)cc(Cl)c1)C1CCC1 (racemic) [Compound 2.156.]
- pEC50 [1]: > 7.00

Compound: Cc1n[nH]c2c1C(c1cc(Cl)cc(-c3ccsc3)c1)(C1CCC1)C(C#N)=C(N)O2 (stereo not shown) [Compound 2.198.]
- pEC50 [1]: > 8.00

Compound: Cc1n[nH]c2c1C(c1cc(C#N)cc(-c3ccc(C(=O)O)c(Cl)c3)c1)(C1CCC1)C(C#N)=C(N)O2 (stereo not shown) [Compound 2.562]
- pEC50 [1]: > 8.00

Compound: CCc1n[nH]c2c1C(c1ccc(Cl)s1)(C1CC1)C(C#N)=C(N)O2 (stereo not shown) [Compound 4.78]
- pEC50 [4]: > 5.00

Compound: CCOc1n[nH]c2c1C(c1cc(C#N)cc(C#N)c1)(C1CCC1)C(C#N)=C(N)O2 (stereo not shown) [Compound 2.397]
- pEC50 [2]: > 7.00

Compound: Cc1n[nH]c2c1C(c1cc(C#N)cc(N(C)C(=O)c3cccc(C(=O)O)c3)c1)(C1CCC1)C(C#N)=C(N)O2 (stereo not shown) [Compound 2.633]
- pEC50 [1]: > 7.00

Compound: Cc1n[nH]c2c1C(c1ccc(Cl)cc1)(C1CC1)C(C#N)=C(N)O2 (stereo not shown) [Compound 2.46.]
- pEC50 [1]: > 6.00

Compound: CCCc1n[nH]c2c1C(CC)(c1cc(Cl)cc(Cl)c1)C(C#N)=C(N)O2 (stereo not shown) [Compound 2.110.]
- pEC50 [1]: > 6.00

Compound: CCC1(c2ccc(OC(=O)c3c(Cl)cccc3Cl)c(C)c2)C(C#N)=C(N)Oc2[nH]nc(C)c21 (stereo not shown) [Compound 2.48.]
- pEC50 [1]: > 5.00

Compound: Cc1n[nH]c2c1C(c1cc3ccccc3s1)(C1CCC1)C(C#N)=C(N)O2 (stereo not shown) [Compound 4.28]
- pEC50 [4]: > 8.00

Compound: COc1n[nH]c2c1C(c1cc(Cl)cc(OCC#N)c1)(C1CCC1)C(C#N)=C(N)O2 (stereo not shown) [Compound 2.444]
- pEC50 [1]: > 7.00

Compound: Cc1n[nH]c2c1C(c1cc(Cl)cc(CCC(=O)O)c1)(C1CCC1)C(C#N)=C(N)O2 (stereo not shown) [Compound 2.500]
- pEC50 [1]: > 8.00

Compound: Cc1n[nH]c2c1C(c1nc3c(Cl)cccc3s1)(C1CCC1)C(C#N)=C(N)O2 (stereo not shown) [Compound 4.45]
- pEC50 [4]: > 8.00

Compound: N#CC1=C(N)Oc2[nH]ncc2C1(c1cc(C#N)cc(C(F)(F)F)c1)C1CC1 (stereo not shown) [Compound 2.361]
- pEC50 [2]: > 7.00

Compound: COCOc1cc(C(F)(F)F)cc(C2(C3CCC3)C(C#N)=C(N)Oc3[nH]nc(C)c32)c1 (stereo not shown) [Compound 2.476]
- pEC50 [1]: > 8.00

Compound: CCC1(c2ccc(O)c([N+](=O)[O-])c2)C(C#N)=C(N)Oc2[nH]nc(C)c21 (stereo not shown) [Compound 2.37.]
- pEC50 [1]: > 6.00

Compound: CCC1(c2ccc(OS(=O)(=O)C(C)C)c(C)c2)C(C#N)=C(N)Oc2[nH]nc(C)c21 (stereo not shown) [Compound 2.54.]
- pEC50 [1]: > 6.00

Compound: Cc1n[nH]c2c1C(c1ccc(-c3ccc(Cl)cc3)s1)(C1CCC1)C(C#N)=C(N)O2 (stereo not shown) [Compound 4.20]
- pEC50 [4]: > 8.00

Compound: CCC1(c2cc(Cl)cc(Cl)c2)C(C#N)=C(N)Oc2[nH]nc(C(C)C)c21 (stereo not shown) [Compound 2.132.]
- pEC50 [1]: > 6.00

Compound: CCCC1(c2cc(Cl)cc(C#N)c2)C(C#N)=C(N)Oc2[nH]nc(C(C)C)c21 (stereo not shown) [Compound 2.584]
- pEC50 [1]: > 8.00

Compound: CCC1(c2cc(F)cc(F)c2)C(C#N)=C(N)Oc2[nH]nc(C)c21 (stereo not shown) [Compound 2.17.]
- pEC50 [1]: > 6.00

Compound: COc1ccc2cc(C3(C4CCC4)C(C#N)=C(N)Oc4[nH]nc(C)c43)ccc2c1 (stereo not shown) [Compound 4.36]
- pEC50 [4]: > 8.00

Compound: Cc1n[nH]c2c1C(c1cccc([N+](=O)[O-])c1)(C(F)(F)F)C(C#N)=C(N)O2 (stereo not shown) [Compound 2.68.]
- pEC50 [1]: > 6.00

Compound: CCC1(c2cc(F)c(F)c(F)c2)C(C#N)=C(N)Oc2[nH]nc(C)c21 (stereo not shown) [Compound 2.18.]
- pEC50 [1]: > 6.00

Compound: Cc1n[nH]c2c1C(c1cccc(C(F)F)c1)(C1CCC1)C(C#N)=C(N)O2 (stereo not shown) [Compound 2.277]
- pEC50 [2]: > 8.00

Compound: Cc1n[nH]c2c1C(c1cc(Cc3nnn[nH]3)cc(-c3nnn[nH]3)c1)(C(C)C)C(C#N)=C(N)O2 (stereo not shown) [Compound 2.735]
- pEC50 [3]: > 5.00

Compound: N#CC1=C(N)Oc2[nH]ncc2C1(c1cc(C#N)cc(-c2ccccn2)c1)C1CCC1 (stereo not shown) [Compound 2.348]
- pEC50 [2]: > 8.00

Compound: CCOC(=O)COc1cc(Cl)cc(C2(C3CCC3)C(C#N)=C(N)Oc3[nH]nc(C)c32)c1 (stereo not shown) [Compound 2.480]
- pEC50 [1]: > 7.00

Compound: COC(=O)c1cccc(-c2cc(Cl)cc(C3(C4CCC4)C(C#N)=C(N)Oc4[nH]nc(C)c43)c2)c1 (stereo not shown) [Compound 2.456]
- pEC50 [1]: > 8.00

Compound: Cc1n[nH]c2c1C(c1cc(C#N)cc(-c3ccc(Cl)cc3)c1)(C1CCC1)C(C#N)=C(N)O2 (stereo not shown) [Compound 2.333]
- pEC50 [2]: > 8.00

Compound: Cc1n[nH]c2c1C(c1cc(C#N)cc(C#N)c1)(C(C)F)C(C#N)=C(N)O2 (stereo not shown) [Compound 2.687]
- pEC50 [3]: > 7.00

Compound: Cc1n[nH]c2c1C(c1cc(Cl)cc(Oc3ccccc3Cl)c1)(C1CCC1)C(C#N)=C(N)O2 (stereo not shown) [Compound 2.236]
- pEC50 [2]: > 8.00

Compound: CCC1(c2cccc(Cl)c2)C(C#N)=C(N)Oc2[nH]nc(C3CC3)c21 (stereo not shown) [Compound 2.117.]
- pEC50 [1]: > 5.00

Compound: Cc1n[nH]c2c1C(c1cc(C#N)cc(CC(=O)O)c1)(C1CCC1)C(C#N)=C(N)O2 (stereo not shown) [Compound 2.627]
- pEC50 [1]: > 7.00

Compound: Cc1n[nH]c2c1C(c1cc(Cl)cc(Cl)c1)(C1(F)CC1)C(C#N)=C(N)O2 (stereo not shown) [Compound 2.214.]
- pEC50 [1]: > 8.00

Compound: CCc1n[nH]c2c1C(CC)(c1cc(Br)cc(C#N)c1)C(C#N)=C(N)O2 (stereo not shown) [Compound 2.576]
- pEC50 [1]: > 7.00

Compound: Cc1n[nH]c2c1C(c1ccc(-c3cccc(C(F)(F)F)c3)s1)(C1CC1)C(C#N)=C(N)O2 (stereo not shown) [Compound 4.53]
- pEC50 [4]: > 7.00

Compound: Cc1n[nH]c2c1C(c1cc(C#N)cc(CCC#N)c1)(C(C)C)C(C#N)=C(N)O2 (stereo not shown) [Compound 2.671]
- pEC50 [3]: > 8.00

Compound: Cc1n[nH]c2c1C(c1cc(Cl)cc(Oc3ccccc3F)c1)(C1CCC1)C(C#N)=C(N)O2 (stereo not shown) [Compound 2.235]
- pEC50 [2]: > 8.00

Compound: CCC1(c2cc(C)cc(Br)c2)C(C#N)=C(N)Oc2[nH]nc(C)c21 (stereo not shown) [Compound 2.469]
- pEC50 [1]: > 8.00

Compound: Cc1n[nH]c2c1C(c1cc(C#N)cc(-c3cc(C(=O)O)cc([N+](=O)[O-])c3)c1)(C1CCC1)C(C#N)=C(N)O2 (stereo not shown) [Compound 2.566]
- pEC50 [1]: > 8.00

Compound: N#CC1=C(N)Oc2[nH]nc(CO)c2C1(c1cc(C(F)(F)F)cc(C(F)(F)F)c1)C1(F)CC1 (stereo not shown) [Compound 2.465]
- pEC50 [1]: > 7.00

Compound: Cc1n[nH]c2c1C(c1cc(C#N)cc(-c3ccc(C(=O)O)cc3)c1)(C(C)C)C(C#N)=C(N)O2 (stereo not shown) [Compound 2.519]
- pEC50 [1]: > 8.00

Compound: Cc1n[nH]c2c1C(c1cncc(Cl)c1)(C1CCC1)C(C#N)=C(N)O2 (stereo not shown) [Compound 4.11]
- pEC50 [4]: > 8.00

Compound: Cc1n[nH]c2c1C(c1cc(C#N)cc(-c3cccc(F)c3)c1)(C1CCC1)C(C#N)=C(N)O2 (stereo not shown) [Compound 2.327]
- pEC50 [2]: > 8.00

Compound: N#CC1=C(N)Oc2[nH]ncc2C1(c1cccc(SC(F)(F)F)c1)C1CCC1 (stereo not shown) [Compound 2.297]
- pEC50 [2]: > 7.00

Compound: CCC1(c2ccc(F)c(Cl)c2)C(C#N)=C(N)Oc2[nH]nc(C)c21 (stereo not shown) [Compound 2.19.]
- pEC50 [1]: > 7.00

Compound: COC(=O)c1ccc(-c2cc(C#N)cc(C3(C4CCC4)C(C#N)=C(N)Oc4[nH]nc(C)c43)c2)cc1OC (stereo not shown) [Compound 2.522]
- pEC50 [1]: > 8.00

Compound: Cc1n[nH]c2c1C(c1ccc(-c3cccc(F)c3)s1)(C1CC1)C(C#N)=C(N)O2 (stereo not shown) [Compound 4.56]
- pEC50 [4]: > 7.00
